Test results from PubChem BioAssay (NCI).
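Test compounds were applied to cells in 96-well plates for 48 hours at 5 doses. TGI is the concentration that stops growth completely.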

Columns and labels:
Experiment in all cases: DTP human tumour cell line panel, 48 h
786-0 renal = test system: 786-0 renal
A498 renal = test system: A498 renal
A549 NSCLC = test system: A549 NSCLC
BT-549 breast = test system: BT-549 breast
CAKI-1 renal = test system: CAKI-1 renal
CCRF-CEM leukemia = test system: CCRF-CEM leukemia
COLO 205 colon = test system: COLO 205 colon
DU-145 prostate = test system: DU-145 prostate
EKVX NSCLC = test system: EKVX NSCLC
HCT-116 colon = test system: HCT-116 colon
HCT-15 colon = test system: HCT-15 colon
HL-60(TB) leukemia = test system: HL-60(TB) leukemia
HOP-62 NSCLC = test system: HOP-62 NSCLC
HOP-92 NSCLC = test system: HOP-92 NSCLC
HS 578T breast = test system: HS 578T breast
HT29 colon = test system: HT29 colon
IGROV1 ovarian = test system: IGROV1 ovarian
K-562 leukemia = test system: K-562 leukemia
KM12 colon = test system: KM12 colon
LOX IMVI melanoma = test system: LOX IMVI melanoma
M14 melanoma = test system: M14 melanoma
MALME-3M melanoma = test system: MALME-3M melanoma
MCF7 breast = test system: MCF7 breast
MDA-MB-231 breast = test system: MDA-MB-231 breast
MDA-MB-435 = test system: MDA-MB-435
MDA-N = test system: MDA-N
MOLT-4 leukemia = test system: MOLT-4 leukemia
NCI-H226 lung = test system: NCI-H226 lung
NCI-H23 lung = test system: NCI-H23 lung
NCI-H460 lung = test system: NCI-H460 lung
NCI/ADR-RES ovarian = test system: NCI/ADR-RES ovarian
OVCAR-3 ovarian = test system: OVCAR-3 ovarian
OVCAR-4 ovarian = test system: OVCAR-4 ovarian
OVCAR-5 ovarian = test system: OVCAR-5 ovarian
OVCAR-8 ovarian = test system: OVCAR-8 ovarian
PC-3 prostate = test system: PC-3 prostate
RPMI-8226 leukemia = test system: RPMI-8226 leukemia
RXF 393 renal = test system: RXF 393 renal
SF-268 CNS = test system: SF-268 CNS
SF-295 CNS = test system: SF-295 CNS
SF-539 CNS = test system: SF-539 CNS
SK-MEL-2 melanoma = test system: SK-MEL-2 melanoma
SK-MEL-28 melanoma = test system: SK-MEL-28 melanoma
SK-MEL-5 melanoma = test system: SK-MEL-5 melanoma
SK-OV-3 ovarian = test system: SK-OV-3 ovarian
SN12C renal = test system: SN12C renal
SNB-19 CNS = test system: SNB-19 CNS
SNB-75 CNS = test system: SNB-75 CNS
SR leukemia = test system: SR leukemia
SW-620 colon = test system: SW-620 colon
TK-10 renal = test system: TK-10 renal
U251 CNS = test system: U251 CNS
UACC-257 melanoma = test system: UACC-257 melanoma
UACC-62 melanoma = test system: UACC-62 melanoma
UO-31 renal = test system: UO-31 renal

`N#Cc1c(-c2ccc(Cl)cc2)c2c([nH]c1=O)-c1ccccc1SC2` was tested, and the TGI (786-0 renal) was over 100 µM, the TGI (A498 renal) was over 100 µM and the TGI (A549 NSCLC) was over 100 µM. For the same compound, the TGI (BT-549 breast) was over 100 µM, the TGI (CAKI-1 renal) was over 100 µM and the TGI (CCRF-CEM leukemia) was 88.6 µM. For the same compound, the TGI (COLO 205 colon) was 50.3 µM, the TGI (DU-145 prostate) was over 100 µM and the TGI (EKVX NSCLC) was 70.8 µM. It also gave a TGI (HCT-116 colon) of over 100 µM, a TGI (HCT-15 colon) of over 100 µM and a TGI (HL-60(TB) leukemia) of 56.7 µM. The TGI (HOP-62 NSCLC) was over 100 µM, the TGI (HOP-92 NSCLC) was 71.9 µM and the TGI (HS 578T breast) was over 100 µM. For the same compound, the TGI (HT29 colon) was over 100 µM, the TGI (IGROV1 ovarian) was over 100 µM and the TGI (K-562 leukemia) was over 100 µM. For the same compound, the TGI (KM12 colon) was over 100 µM, the TGI (LOX IMVI melanoma) was 73.9 µM and the TGI (M14 melanoma) was over 100 µM. The TGI (MALME-3M melanoma) was over 100 µM, the TGI (MCF7 breast) was over 100 µM and the TGI (MDA-MB-231 breast) was over 100 µM. The TGI (MDA-MB-435) was over 100 µM, the TGI (MDA-N) was over 100 µM and the TGI (MOLT-4 leukemia) was 94.8 µM. For the same compound, the TGI (NCI-H226 lung) was over 100 µM, the TGI (NCI-H23 lung) was over 100 µM and the TGI (NCI-H460 lung) was over 100 µM. For the same compound, the TGI (NCI/ADR-RES ovarian) was over 100 µM, the TGI (OVCAR-3 ovarian) was 92.7 µM and the TGI (OVCAR-4 ovarian) was over 100 µM. For the same compound, the TGI (OVCAR-5 ovarian) was over 100 µM, the TGI (OVCAR-8 ovarian) was over 100 µM and the TGI (PC-3 prostate) was over 100 µM. It also gave a TGI (RPMI-8226 leukemia) of 98.8 µM, a TGI (RXF 393 renal) of 77.4 µM and a TGI (SF-268 CNS) of over 100 µM. It also gave a TGI (SF-295 CNS) of over 100 µM, a TGI (SF-539 CNS) of 68 µM and a TGI (SK-MEL-2 melanoma) of over 100 µM. It also gave a TGI (SK-MEL-28 melanoma) of over 100 µM, a TGI (SK-MEL-5 melanoma) of over 100 µM and a TGI (SK-OV-3 ovarian) of over 100 µM. The TGI (SN12C renal) was over 100 µM, the TGI (SNB-19 CNS) was over 100 µM and the TGI (SNB-75 CNS) was 69.5 µM. It also gave a TGI (SR leukemia) of over 100 µM, a TGI (SW-620 colon) of over 100 µM and a TGI (TK-10 renal) of 52.9 µM. It also gave a TGI (U251 CNS) of over 100 µM, a TGI (UACC-257 melanoma) of over 100 µM and a TGI (UACC-62 melanoma) of over 100 µM. The TGI (UO-31 renal) was over 100 µM.
